Where “and” joins values, the source holds several entries; their conditions need not be identical. Equal values may be shown once.
How the values were obtained:
A2780 cells = assay: SRB proliferation assay for non-light-sensitive complexes, A2780; format: cell-based, human; conditions: ambient light, 24 h exposure, 72 h recovery
Description: Cytotoxicity of platinum(II) precursors: To investigate the relationship between the Pt^IV diazidodihydroxido complexes and their Pt^II dichlorido analogues trans-[PtCl2(Am1)(Am2)] (where Am=amine), the cytotoxicities of complexes trans-[PtCl2(MA)(Py)] (5) and trans-[PtCl2(MA)(Tz)] (6) towards A2780 and its cisplatin resistant sub-line A2780cis were determined. The toxicity was not photoinduced, as the complexes are not photoactive. Complexes 5 and 6 are highly cytotoxic towards A2780 and A2780cis cells compared to the reported trans-Pt^II compounds.[18]–[22] Complex 5 is about three-times more cytotoxic than complex 6 towards A2780 cells. […]
Cell Culture and Proliferation Assay for Non-light-sensitive Complexes
The A2780 ovarian cell line was obtained from the ECACC (European Collection of Animal Cell Culture, Salisbury, United Kingdom). The cells were maintained in RPMI 1640 media, which was supplemented with 10% foetal calf serum, 1% L-glutamine, and 1% penicillin/streptomycin. All cells were grown at 310 K in an humidified atmosphere containing 5% CO2. Stock solutions of the Pt complexes were freshly prepared in DMSO to assist dissolution and then diluted into saline and medium (maximum final concentration of DMSO 1% and saline 6%). After plating 5000 A2780 cells per well on day 1, Pt complexes were added to the cancer cells on day 3 at concentrations ranging from 0.01 to 100 µM, depending on the preliminary activity data obtained in screening assays. Cells were exposed to the complexes for 24 h, washed with PBS, supplied with fresh medium, and allowed to grow for three doubling times (72 h), and then the protein content (proportional to cell survival) was measured using the sulforhodamine B (SRB) assay.[7] The standard errors are based on two independent experiments of three replicates each.[8]

calf thymus DNA = assay: Characterisation of DNA adducts with thiourea; format: binding; conditions: in the dark; for Total adducts displaced from DNA by thiourea after 24 h: 10 mM thiourea; for Bifunctional adducts after 24 h: thiourea probe
Description: Characterisation of DNA adducts: The experiments aimed at the characterisation of DNA adducts of photoactivated 1 or 2, and of 5 or 6 in the dark were conducted employing thiourea as a probe of DNA monofunctional adducts of trans-platinum(II) compounds[24] (for details, see the Supporting Information). After 24 h, 55(±10), 48(±2), 66(±1) and 64(±3) % of the total adducts of platinum complexes 1, 2, 5 and 6, respectively, were displaced from DNA by thiourea (Figure 10). Thus, only 45, 52, 34 and 36 % of DNA adducts formed by 1 or 2 (photoactivated) and 5 or 6 (in the dark), respectively, had evolved to bifunctional lesions after this time interval.
Figure 10 Quantification of DNA adducts by thiourea. Dependence of rb on incubation time for calf thymus DNA modified by photoactivated: A) 1, or B) 2 (420 nm light); and in the dark with: C) 5, or D) 6. Reactions were stopped with thiourea (10 mM; 10 min, 310 K; ▴) or without thiourea (▪), and the platinum associated with DNA was assessed. […]
assayed by differential pulse polarography for free, unbound platinum.[16] The amount of platinum bound to DNA was calculated by subtracting the amount of free (unbound) platinum from the total amount of platinum present in the reaction.
Transcription mapping of DNA adducts in vitro
The 212-bp DNA fragment used was yielded from cutting of pSP73KB DNA by NdeI and HpaI restriction endonucleases (a substantial part of the nucleotide sequence is […]
This fragment contained T7 RNA polymerase promoter (in the upper strand close to its 3'-end). This linear DNA fragment was randomly modified by transplatin (8), cisplatin (7), 5 and 6 in the dark and by 1 and 2 photoactivated with 420 nm light at rb = 0.01, for RNA synthesis by T7 RNA polymerase. The fragments produced in RNA synthesis on the template modified by the platinum complexes were analysed by a 6% polyacrylamide/8M urea sequencing gel.
Quantification of DNA adducts
Double-helical calf thymus DNA at a concentration of 32 µg/mL was incubated with 5 or 6 in the dark, or alternatively, DNA mixed with 1 or 2 was irradiated for 30min (λirrad = 420 nm) and then incubated in the dark in 10 mM NaClO4 at 310 K. At various time intervals the aliquots were withdrawn and the platination reaction was stopped by addition of 10 mM thiourea, samples were incubated for 10 min at […] and then quickly cooled to 253 K. In parallel experiments, 100 mM NaCl was added to the samples instead of thiourea and samples were immediately cooled to 253 K.
Platinum associated with DNA was assessed by flameless atomic absorption […]
Quantification of DNA interstrand cross-links […]

| SMILES | IC50 (A2780 cells) | Total adducts displaced from DNA by thiourea after 24 h (calf thymus DNA) | Bifunctional adducts after 24 h (calf thymus DNA) |
| --- | --- | --- | --- |
| C[NH2+][Pt@SP3-2]([Cl])([Cl])[n+]1ccccc1 [Complex 5, trans-[PtCl2(MA)(Py)]] | 2.4 ± 0.7 µM | 66(±1) % | 34% and 34±1% |
| C[NH2+][Pt@SP3-2]([Cl])([Cl])[n+]1ccsc1 [Complex 6, trans-[PtCl2(MA)(Tz)]] | 6.9 ± 2.3 µM | 64(±3) % | 36% and 36±2% |

From article PMC4280898, “Diazido Mixed-Amine Platinum(IV) Anticancer Complexes Activatable by Visible-Light Form Novel DNA Adducts” (Chemistry (Weinheim an Der Bergstrasse, Germany), 2013)
